Test results published in patent publication US9528990B2, “Fluorogenic/fluorescent probes derivative from sulfoxanthene, and use thereof” (bioMérieux, priority 2014, dated 2016).
Blank lines part the entries; values can stand above or below the compound they belong to.

Assays:
[1] = tested on: sulfatase from Helix pomatia; experiment: Kinetic study with sulfatase; type: biochemical; conditions: about 10 μM, PBS pH 7.4, 7.8 units sulfatase, 37° C.; ex 540 nm
Method: A kinetic study of SR101-NaphtO(SO3H) was carried out by incubating this fluorogenic substrate, previously solubilized in phosphate buffered saline (pH 7.4) at a concentration of about 10 μM, with 7.8 units of a sulfatase from Helix pomatia, at 37° C. The evolution of the intensity of fluorescence at 600 nm, emitted under an excitation wavelength of 540 nm, was recorded and is presented in FIG. 6.

[2] = Chemically simulated myeloperoxidase activity with sodium hypochlorite; conditions: about 10 μM, PBS pH 7.4, 150 equivalents sodium hypochlorite, 25° C.; ex 540 nm
Method: A kinetic study of SR101-NaphtO(para-aminophenyl) acid was carried out by incubating this fluorogenic substrate, previously solubilized in phosphate buffered saline (pH 7.4) at a concentration of about 10 μM, with 150 equivalents of sodium hypochlorite, at 25° C.
This chemical procedure using sodium hypochlorite is routinely used to simulate a myeloperoxidase activity (Shepherd et al., Chemistry and Biology, 2007, 14: 1221-1231).
The evolution of the intensity of fluorescence at 650 nm, emitted under an excitation wavelength of 540 nm, was recorded and is presented in FIG. 7.

[3] = tested on: pig liver esterase (PLE); experiment: Kinetic study with carboxylesterase; type: biochemical; conditions: about 5 μM, PBS pH 7.4, 10 units PLE, 37° C.; ex 540 nm (SR101-NaphtOAc) or 530 nm (SR101-NaphtO-lauric acid)
Method: 1. A kinetic study of SR101-NaphtOAc was carried out by incubating this fluorogenic substrate, previously solubilized in phosphate buffered saline (pH 7.4) at a concentration of about 5 μM, with 10 units of pig liver esterase (PLE), at 37° C. The evolution of the intensity of fluorescence at 600 nm, emitted under an excitation wavelength of 540 nm, was recorded and is presented in FIG. 5a. 2. A kinetic study of SR101-NaphtO-lauric acid was carried out by incubating this fluorogenic substrate, previously solubilized in phosphate buffered saline (pH 7.4) at a concentration of about 5 μM, with 10 units of pig liver esterase (PLE), at 37° C. The evolution of the intensity of fluorescence at 600 nm, emitted under an excitation wavelength of 530 nm, was recorded and is presented in FIG. 5b.

[4] = tested on: E. coli K12; experiment: Bacterial azoreduction overnight, compared with Methyl Red; type: cell-based; conditions: 100 μM, overnight 37° C.
Method: a) The bacterial reduction of SR101-Q-CO2H was compared to the one of Methyl Red, an azo dye. Each molecule at 100 μM in Trypcase Soya Broth in presence 7.5*10^7 colonies forming unit (cfu) of E. coli K12 was incubated overnight at 37° C. The fluorescence produced by the azoreduction of Methyl Red was measured at 395 nm under an excitation wavelength of 250 nm. The fluorescence produced by the azoreduction of SR101-Q-CO2H was measured at 580 nm under an excitation wavelength of 550 nm. For Methyl Red the ratio between medium with and without bacteria was 469/184 (×2.5). For SR101-Q-CO2H, it was 19 times upper: 17269/363 (×48).

[5] = target: nitroreductase from Escherichia coli (NfsA) (Escherichia coli, UniProt P17117); experiment: Kinetic study of SR101-NO2 with purified nitroreductase; type: biochemical
Method: A kinetic study was carried out by incubating the substrate SR101-NO2 in PBS at 37.5° C., at a concentration of about 5 μM.
Successive additions of NADH and nitroreductase from Escherichia coli (NfsA=4×2.5 μg) were performed and the fluorescence at 575 nm (emission maximum of SR101-110) was measured, under an excitation wavelength of 500 nm.

[6] = tested on: E. coli strain (ATCC 25922); experiment: Reduction of SR101-NO2 by growing E. coli cells, followed by fluorescence; type: cell-based, Escherichia coli; conditions: about 10^6 cfu/ml, Trypcase Soya Broth, 37° C.; 0-100 μM as SR101-110/SR101-NO2 about 10/90; ex 550 nm, em 580 nm (FIG. 1c)
Method: The reduction of SR101-NO2 by an E. coli strain (ATCC 25922), known for its nitroreduction ability, was analyzed in fluorescence.
This kinetic study was carried out with an initial concentration of cells around 10^6 cfu/ml, growing in Trypcase Soya Broth at 37° C., in presence of different concentrations of fluorogenic substrate (from 0 μM to 100 μM). For this study, said fluorogenic substrate is used in the form of a SR101-110/SR101-NO2 (with a ratio of about 10/90).
The fluorescence at 580 nm was measured, under an excitation wavelength of 550 nm.

[7] = emitted fluorescence before and after the reduction (FIG. 1b)

Chain of nitroreductase from Escherichia coli (NfsA) (P17117 whole entry): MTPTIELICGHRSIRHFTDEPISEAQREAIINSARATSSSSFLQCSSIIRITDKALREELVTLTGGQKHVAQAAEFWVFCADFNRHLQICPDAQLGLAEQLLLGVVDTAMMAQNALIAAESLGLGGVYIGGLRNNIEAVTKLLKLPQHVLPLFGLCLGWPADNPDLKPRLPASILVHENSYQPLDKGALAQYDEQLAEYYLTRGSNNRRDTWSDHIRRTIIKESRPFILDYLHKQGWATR

fluorescence at 600 nm after addition of the sulfatase [1]: remarkable fluorescence enhancement
SMILES: O=S(=O)(O)Oc1ccc2c3c(ccc2c1)C(c1ccc(S(=O)(=O)[O-])cc1S(=O)(=O)O)=c1cc2c4c(c1O3)CCC[N+]=4CCC2 [SR101-NaphtO(SO3H)]

fluorescence at 650 nm after addition of sodium hypochlorite [2]: remarkable fluorescence enhancement
SMILES: Nc1ccc(Oc2ccc3c4c(ccc3c2)C(c2ccc(S(=O)(=O)O)cc2S(=O)(=O)O)=c2cc3c5c(c2O4)CCC[N+]=5CCC3)cc1 [SR101-NaphtO(para-aminophenyl)]

fluorescence at 600 nm after addition of the esterase [3]: remarkable fluorescence enhancement
SMILES: CCCCCCCCCCCC(=O)Oc1ccc2c3c(ccc2c1)C(c1ccc(S(=O)(=O)O)cc1S(=O)(=O)O)=c1cc2c4c(c1O3)CCC[N+]=4CCC2 [SR101-NaphtO-lauric acid]

SMILES: CN(C)c1ccc(/N=N/c2ccccc2C(=O)O)cc1 [Methyl Red]
fluorescence of medium with bacteria ([4]; Trypcase Soya Broth, 7.5*10^7 cfu, Methyl Red ex 250/em 395 nm, SR101-Q-CO2H ex 550/em 580 nm): 469 | ratio between medium with and without bacteria (×) [4]: 2.5

fluorescence at 600 nm after addition of the esterase [3]: remarkable fluorescence enhancement
SMILES: CC(=O)Oc1ccc2c3c(ccc2c1)C(c1ccc(S(=O)(=O)[O-])cc1S(=O)(=O)O)=c1cc2c4c(c1O3)CCC[N+]=4CCC2 [SR101-NaphtOAc]

SMILES: O=[N+]([O-])c1ccc2c(c1)Oc1c3c4c(cc1=C2c1ccc(S(=O)(=O)O)cc1S(=O)(=O)[O-])CCC[N+]=4CCC3 [SR101-NO2]
reduction of the substrate by nitroreductase ([5]; 5 μM substrate, total 10 μg enzyme (4×2.5 μg), after an hour of incubation at 37.5° C.): complete reduction | influence of NADH alone on the evolution of the fluorescence ([5]; NADH 0.5 mM, no enzyme, about 5 μM substrate in PBS, 37.5° C., ex 500 nm, em 575 nm): did not influence | fluorescence enhancement (factor) [5, 7]: 15 | quenching efficiency [5, 7]: 92% | nitroreduction by growing cells (fluorescence evolution) [6]: progressive nitroreduction
